From PubChem BioAssay AID1259407 (Chemical Carcinogenesis Research Information System (CCRIS), 2018)
Calls of active or inactive are those of the source. No rule for the calls is given here.

System: CCRIS mutagenicity, Ames/micronucleus/aberration tests
Assay: CCRIS mutagenicity studies
[1] = Test System: AMES SALMONELLA TYPHIMURIUM, Strain/Indicator: TA100, Metabolic Activation: NONE, Method: STANDARD PLATE
[2] = Test System: AMES SALMONELLA TYPHIMURIUM, Strain/Indicator: TA98, Metabolic Activation: NONE, Method: STANDARD PLATE
[3] = Test System: AMES SALMONELLA TYPHIMURIUM, Strain/Indicator: TA1535, Metabolic Activation: NONE, Method: STANDARD PLATE

Question: Which mutagenic call (Test System: AMES SALMONELLA TYPHIMURIUM, Strain/Indicator: TA97, Metabolic Activation: HAMSTER, LIVER, S-9, AROCLOR 1254 (10%), Method: PREINCUBATION) does the source give for `CC(C)(C)c1cc(O)ccc1O` here?
Answer: inactive; negative

Question: What about the mutagenic call (Test System: AMES SALMONELLA TYPHIMURIUM, Strain/Indicator: TA97, Metabolic Activation: HAMSTER, LIVER, S-9, AROCLOR 1254 (30%), Method: PREINCUBATION) of the same compound?
Answer: inactive; negative

Question: And the mutagenic call (Test System: AMES SALMONELLA TYPHIMURIUM, Strain/Indicator: TA97, Metabolic Activation: NONE, Method: PREINCUBATION)?
Answer: inactive; negative

Question: What about the mutagenic call (Test System: AMES SALMONELLA TYPHIMURIUM, Strain/Indicator: TA97, Metabolic Activation: NONE, Method: STANDARD PLATE) of the same compound?
Answer: inactive; negative

Question: And the mutagenic call (Test System: AMES SALMONELLA TYPHIMURIUM, Strain/Indicator: TA97, Metabolic Activation: RAT, LIVER, S-9, AROCLOR 1254 (10%), Method: PREINCUBATION)?
Answer: inactive; negative

Question: And the mutagenic call (Test System: AMES SALMONELLA TYPHIMURIUM, Strain/Indicator: TA97, Metabolic Activation: RAT, LIVER, S-9, AROCLOR 1254 (30%), Method: PREINCUBATION)?
Answer: inactive; negative

Question: What about the mutagenic call (Test System: AMES SALMONELLA TYPHIMURIUM, Strain/Indicator: TA97, Metabolic Activation: RAT, LIVER, S-9, AROCLOR, Method: STANDARD PLATE) of the same compound?
Answer: inactive; negative

Question: What about the mutagenic call (Test System: AMES SALMONELLA TYPHIMURIUM, Strain/Indicator: TA97, Metabolic Activation: RAT, LIVER, S-9, PCB, Method: PREINCUBATION) of the same compound?
Answer: inactive; negative

Question: And the mutagenic call (Test System: AMES SALMONELLA TYPHIMURIUM, Strain/Indicator: TA98, Metabolic Activation: HAMSTER, LIVER, S-9, AROCLOR 1254 (10%), Method: PREINCUBATION)?
Answer: inactive; negative

Question: And the mutagenic call (Test System: AMES SALMONELLA TYPHIMURIUM, Strain/Indicator: TA98, Metabolic Activation: HAMSTER, LIVER, S-9, AROCLOR 1254 (30%), Method: PREINCUBATION)?
Answer: inactive; negative

Question: And the mutagenic call (Test System: AMES SALMONELLA TYPHIMURIUM, Strain/Indicator: TA98, Metabolic Activation: NONE, Method: PREINCUBATION)?
Answer: inactive; negative

Question: What about the mutagenic call (Test System: AMES SALMONELLA TYPHIMURIUM, Strain/Indicator: TA98, Metabolic Activation: RAT, LIVER, S-9, AROCLOR 1254 (10%), Method: PREINCUBATION) of the same compound?
Answer: inactive; negative

Question: What about the mutagenic call (Test System: AMES SALMONELLA TYPHIMURIUM, Strain/Indicator: TA98, Metabolic Activation: RAT, LIVER, S-9, AROCLOR 1254 (30%), Method: PREINCUBATION) of the same compound?
Answer: inactive; negative

Question: And the mutagenic call (Test System: AMES SALMONELLA TYPHIMURIUM, Strain/Indicator: TA98, Metabolic Activation: RAT, LIVER, S-9, PCB, Method: PREINCUBATION)?
Answer: inactive; negative

Question: What about the mutagenic call (Test System: AMES SALMONELLA TYPHIMURIUM, Strain/Indicator: TA100, Metabolic Activation: HAMSTER, LIVER, S-9, AROCLOR 1254 (10%), Method: PREINCUBATION) of the same compound?
Answer: inactive; negative

Question: What about the mutagenic call (Test System: AMES SALMONELLA TYPHIMURIUM, Strain/Indicator: TA100, Metabolic Activation: HAMSTER, LIVER, S-9, AROCLOR 1254 (30%), Method: PREINCUBATION) of the same compound?
Answer: inactive; negative

Question: What about the mutagenic call (Test System: AMES SALMONELLA TYPHIMURIUM, Strain/Indicator: TA100, Metabolic Activation: NONE, Method: PREINCUBATION) of the same compound?
Answer: inactive; negative

Question: And the mutagenic call [1]?
Answer: inactive; negative

Question: And the mutagenic call (Test System: AMES SALMONELLA TYPHIMURIUM, Strain/Indicator: TA100, Metabolic Activation: RAT, LIVER, S-9, AROCLOR 1254 (10%), Method: PREINCUBATION)?
Answer: inactive; negative

Question: What about the mutagenic call (Test System: AMES SALMONELLA TYPHIMURIUM, Strain/Indicator: TA100, Metabolic Activation: RAT, LIVER, S-9, AROCLOR 1254 (30%), Method: PREINCUBATION) of the same compound?
Answer: inactive; negative

Question: What about the mutagenic call (Test System: AMES SALMONELLA TYPHIMURIUM, Strain/Indicator: TA100, Metabolic Activation: RAT, LIVER, S-9, AROCLOR, Method: STANDARD PLATE) of the same compound?
Answer: inactive; negative

Question: And the mutagenic call (Test System: AMES SALMONELLA TYPHIMURIUM, Strain/Indicator: TA100, Metabolic Activation: RAT, LIVER, S-9, PCB, Method: PREINCUBATION)?
Answer: inactive; negative

Question: What about the mutagenic call (Test System: AMES SALMONELLA TYPHIMURIUM, Strain/Indicator: TA102, Metabolic Activation: HAMSTER, LIVER, S-9, AROCLOR 1254 (10%), Method: PREINCUBATION) of the same compound?
Answer: inactive; negative

Question: What about the mutagenic call (Test System: AMES SALMONELLA TYPHIMURIUM, Strain/Indicator: TA102, Metabolic Activation: HAMSTER, LIVER, S-9, AROCLOR 1254 (30%), Method: PREINCUBATION) of the same compound?
Answer: inactive; negative

Question: And the mutagenic call (Test System: AMES SALMONELLA TYPHIMURIUM, Strain/Indicator: TA102, Metabolic Activation: NONE, Method: PREINCUBATION)?
Answer: inactive; negative

Question: What about the mutagenic call (Test System: AMES SALMONELLA TYPHIMURIUM, Strain/Indicator: TA102, Metabolic Activation: NONE, Method: STANDARD PLATE) of the same compound?
Answer: inactive; negative

Question: And the mutagenic call (Test System: AMES SALMONELLA TYPHIMURIUM, Strain/Indicator: TA102, Metabolic Activation: RAT, LIVER, S-9, AROCLOR 1254 (10%), Method: PREINCUBATION)?
Answer: inactive; negative

Question: What about the mutagenic call (Test System: AMES SALMONELLA TYPHIMURIUM, Strain/Indicator: TA102, Metabolic Activation: RAT, LIVER, S-9, AROCLOR 1254 (30%), Method: PREINCUBATION) of the same compound?
Answer: inactive; negative

Question: And the mutagenic call (Test System: AMES SALMONELLA TYPHIMURIUM, Strain/Indicator: TA102, Metabolic Activation: RAT, LIVER, S-9, AROCLOR, Method: STANDARD PLATE)?
Answer: inactive; negative

Question: And the mutagenic call (Test System: AMES SALMONELLA TYPHIMURIUM, Strain/Indicator: TA102, Metabolic Activation: RAT, LIVER, S-9, PCB, Method: PREINCUBATION)?
Answer: inactive; negative

Question: What about the mutagenic call (Test System: AMES SALMONELLA TYPHIMURIUM, Strain/Indicator: TA104, Metabolic Activation: NONE, Method: PREINCUBATION) of the same compound?
Answer: inactive; negative

Question: What about the mutagenic call (Test System: AMES SALMONELLA TYPHIMURIUM, Strain/Indicator: TA104, Metabolic Activation: NONE, Method: STANDARD PLATE) of the same compound?
Answer: inactive; negative

Question: And the mutagenic call (Test System: AMES SALMONELLA TYPHIMURIUM, Strain/Indicator: TA104, Metabolic Activation: RAT, LIVER, S-9, AROCLOR, Method: PREINCUBATION)?
Answer: inactive; negative

Question: What about the mutagenic call (Test System: AMES SALMONELLA TYPHIMURIUM, Strain/Indicator: TA104, Metabolic Activation: RAT, LIVER, S-9, AROCLOR, Method: STANDARD PLATE) of the same compound?
Answer: inactive; negative

Question: Which mutagenic call [2] does the source give for `[N-]=[N+]=NC[C@H]1O[C@H](O)[C@H](O)[C@@H](O)[C@H]1O` here?
Answer: inactive; negative

Question: What about the mutagenic call [1] of the same compound?
Answer: active; positive

Question: How did the mutagenic call [2] turn out when `CCCCC(CC)COC(=O)c1ccc(C(=O)OCC(CC)CCCC)cc1` (configuration not stated) was run?
Answer: inactive; negative

Question: And the mutagenic call (Test System: AMES SALMONELLA TYPHIMURIUM, Strain/Indicator: TA98, Metabolic Activation: RAT, LIVER, S-9, Method: STANDARD PLATE)?
Answer: inactive; negative

Question: And the mutagenic call [1]?
Answer: inactive; negative

Question: And the mutagenic call (Test System: AMES SALMONELLA TYPHIMURIUM, Strain/Indicator: TA100, Metabolic Activation: RAT, LIVER, S-9, Method: STANDARD PLATE)?
Answer: inactive; negative

Question: What about the mutagenic call [3] of the same compound?
Answer: inactive; negative

Question: And the mutagenic call (Test System: AMES SALMONELLA TYPHIMURIUM, Strain/Indicator: TA1535, Metabolic Activation: RAT, LIVER, S-9, Method: STANDARD PLATE)?
Answer: inactive; negative

Question: What about the mutagenic call (Test System: AMES SALMONELLA TYPHIMURIUM, Strain/Indicator: TA1537, Metabolic Activation: NONE, Method: STANDARD PLATE) of the same compound?
Answer: inactive; negative

Question: What about the mutagenic call (Test System: AMES SALMONELLA TYPHIMURIUM, Strain/Indicator: TA1537, Metabolic Activation: RAT, LIVER, S-9, Method: STANDARD PLATE) of the same compound?
Answer: inactive; negative

Question: And the mutagenic call (Test System: AMES SALMONELLA TYPHIMURIUM, Strain/Indicator: TA1538, Metabolic Activation: NONE, Method: STANDARD PLATE)?
Answer: inactive; negative

Question: And the mutagenic call (Test System: AMES SALMONELLA TYPHIMURIUM, Strain/Indicator: TA1538, Metabolic Activation: RAT, LIVER, S-9, Method: STANDARD PLATE)?
Answer: inactive; negative

Question: What about the mutagenic call (Test System: CHINESE HAMSTER OVARY, Strain/Indicator: CHO-K1-BH4 (HGPRT)/6-THIOGUANINE, Metabolic Activation: NONE) of the same compound?
Answer: inactive; negative

Question: What about the mutagenic call (Test System: CHINESE HAMSTER OVARY, Strain/Indicator: CHO-K1-BH4 (HGPRT)/6-THIOGUANINE, Metabolic Activation: RAT, LIVER, S-9) of the same compound?
Answer: inactive; negative

Question: What does the source list for `C=COc1ccccc1`?
Answer: mutagenic call [2]: inactive; negative; mutagenic call (Test System: AMES SALMONELLA TYPHIMURIUM, Strain/Indicator: TA98, Metabolic Activation: RAT LIVER MICROSOMES, Method: STANDARD PLATE): inactive; negative; mutagenic call [3]: inactive; negative; mutagenic call (Test System: AMES SALMONELLA TYPHIMURIUM, Strain/Indicator: TA1535, Metabolic Activation: RAT LIVER MICROSOMES, Method: STANDARD PLATE): active; positive
